The record followed here is US11370785B2, “Multicyclic compounds as farnesoid X receptor modulators” (BRISTOL-MYERS SQUIBB COMPANY, priority 2017, dated 2022).

pEC50: −log10 of the molar value.

As a reminder, the pEC50 is −log10 of the EC50, conventionally taken in molar units.

The target in the first assay is T1, human FXR (Homo sapiens, UniProt Q96RI1).
T1 construct: expressed in transfected cells; host or cells: HEK293 cells stably carrying a 5xGal4-response-element firefly luciferase reporter, transiently transfected with the pcDNA3.1-Gal4-FXR plasmid
T1 sequence (Q96RI1 262-486 limits assumed): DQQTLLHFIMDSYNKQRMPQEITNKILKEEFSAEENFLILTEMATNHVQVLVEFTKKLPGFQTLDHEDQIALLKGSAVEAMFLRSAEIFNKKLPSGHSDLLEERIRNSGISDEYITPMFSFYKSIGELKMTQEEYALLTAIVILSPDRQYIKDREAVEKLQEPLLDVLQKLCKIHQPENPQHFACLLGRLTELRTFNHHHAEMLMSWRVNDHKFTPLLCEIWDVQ
Nature of the assay: transient human FXR/Gal4-luciferase reporter assay. The following applies: Gal4-hFXR reporter in HEK293 cells; read-out: HLE GAL-FXR EC50. Type of assay: cell-based. The protocol: The exemplified compounds of the present invention were tested in the transient human FXR/Gal4-luciferase reporter assay, and assay results were reported in Table 1 together with other analytical data.
A Gal4-hFXR fusion construct reporter system was used as the primary assay to characterize compound activity. A construct including 5 copies of the Gal4 promoter response element upstream of a firefly luciferase reporter cDNA was stably expressed in HEK293 cells. This reporter cell line was maintained in Dulbecco's Modified Eagle's medium (DMEM; Gibco) supplemented with 1% penicillin-streptomycin (P/S) solution, 500 μg/mL Zeocin and 10% charcoal/dextran-treated fetal bovine serum (cs-FBS) at 37° C. in a humidified 5% CO2 atmosphere. Another plasmid was constructed in which the human cytomegalovirus promoter in the pcDNA3.1 vector directs the expression of the cDNA encoding a fusion protein comprised of the DNA binding domain from the Gal4 transcription factor fused to the ligand binding domain from human FXR.
The day prior to transfection, the reporter cells in culture are detached from the plate with trypsin and plated into a T75 flask at a sufficient density to achieve approximately 90% confluence the next morning. The transfection reagents are prepared by separately diluting 25 μg of the pcDNA3.1-Gal4-FXR plasmid into 1.87 mL of Opti-MEM (Thermo-Fisher), and 40 μL of Lipofectamine 2000 (Thermo-Fisher) into 1.87 mL of Opti-MEM, and then adding the diluted DNA solution into the diluted Lipofectamine 2000 solution and incubating at room temperature for 15-20 minutes. The mixture is further diluted with 10 mL of a solution comprised of DMEM, 10% cs-FBS, and 1% P/S immediately prior to transferring to the cells. The maintenance culture media is aspirated from the cells and the final transfection mixture is added before the cells are incubated overnight at 37° C. in a humidified 5% CO2 atmosphere. This protocol can be scaled up, and the transiently transfected cells can be cryopreserved in an assay-ready format.
For compound testing, 100 nL of the compounds (serial dilutions in DMSO) are dispensed with an Echo acoustic dispenser (Labcyte) into the wells of a Corning/Costar clear bottom 384-well white plate. The transfected cells are harvested, counted, and diluted such that 10-25,000 cells in 25 μL are plated into each well of the 384-well compound assay plate. The compound-treated cells are incubated overnight at 37° C. in a humidified 5% CO2 atmosphere. The next morning 25 μL of Steady-Glo (Promega) are added to each well of the plate, the mixture is incubated for 15 min. with shaking, and luminescence is measured on an Envision (Perkin Elmer) plate reader. Background counts from cells treated with DMSO alone are subtracted from all raw counts, and the corrected values are converted to a percentage of the control response attained with 8 μM GW-4064.
For orientation: Reporter assays use an easily measured gene product as a stand-in for the process of interest.
`Clc1cccc(Cl)c1-c1noc(C2CC2)c1C=C1CC2(CCN(c3ccc(-c4nn[nH]n4)cc3)CC2)C1` [Example 50, 4-((7-(4-(2H-tetrazol-5-yl)phenyl)-7-azaspiro[3.5]nonan-2-ylidene)methyl)-5-cyclopropyl-3-(2,6-dichlorophenyl)isoxazole]: the pEC50 is 5.36.

Consider `O=C(NS(=O)(=O)C1CC1)c1cc(C(F)(F)F)c2cc(N3CCC4(CC3)CC(Cc3c(-c5ccccc5C(F)(F)F)noc3C3CC3)C4)ccc2n1` [Example 82, 6-(2-((5-Cyclopropyl-3-(2-(trifluoromethyl)phenyl)isoxazol-4-yl)methyl)-7-azaspiro[3.5]nonan-7-yl)-N-(cyclopropylsulfonyl)-4-(trifluoromethyl)quinoline-2-carboxamide], for which the pEC50 is 7.96.

Staying with this assay, now noted: Gal4-hFXR reporter in HEK293 cells; relative to 8 μM GW-4064; read-out: FXR EC50.
In the case of `O=C(O)c1ccc2cc(N3CCC4(CC3)CC(Cc3c(-c5c(Cl)cccc5Cl)noc3C3CC3)C4)ccc2n1` [Example 40], the pEC50 is 7.29.

As for `O=C(O)c1cc(C(F)(F)F)c2cc(N3CCC4(CC3)CC(Cc3c(-c5c(Cl)cccc5Cl)noc3C3CC3)C4)ccc2n1` [Example 41], the pEC50 is 7.89.

For `O=C(O)C1(c2ccc(N3CCC4(CC3)CC(=Cc3c(-c5c(Cl)cccc5Cl)noc3C3CC3)C4)cc2)CCC1` [Example 42], the pEC50 was 6.68.

`Cc1cc2cc(N3CCC4(CC3)CC(=Cc3c(-c5c(Cl)cccc5Cl)noc3C3CC3)C4)ccc2nc1C(=O)O` [Example 43]: the pEC50 is 5.87.

For the compound `O=C(O)c1ccc(CCN2CCC3(CC2)CC(=Cc2c(-c4c(Cl)cccc4Cl)noc2C2CC2)C3)cc1` [Example 44], the pEC50 is 6.12.

As to `O=C(O)Cc1ccc(N2CCC3(CC2)CC(=Cc2c(-c4c(Cl)cccc4Cl)noc2C2CC2)C3)cc1` [Example 45], the pEC50 was 6.49.

Regarding `O=C(O)C1(c2ccc(N3CCC4(CC3)CC(=Cc3c(-c5c(Cl)cccc5Cl)noc3C3CC3)C4)cc2)CC1` [Example 46], the pEC50 is 6.41.

With `O=C(O)c1ccc2cc(N3CCC4(CC3)CC(=Cc3c(-c5c(Cl)cccc5Cl)noc3C3CC3)C4)ccc2c1` [Example 47], the pEC50 is 7.28.

For the compound `N#Cc1ccc(N2CCC3(CC2)CC(=Cc2c(-c4c(Cl)cccc4Cl)noc2C2CC2)C3)cc1` [Example 48, 4-(2-((5-cyclopropyl-3-(2,6-dichlorophenyl)isoxazol-4-yl)methylene)-7-azaspiro[3.5]nonan-7-yl)benzonitrile], the pEC50 is 5.63.

For `N#Cc1cccc(N2CCC3(CC2)CC(=Cc2c(-c4c(Cl)cccc4Cl)noc2C2CC2)C3)c1` [Example 49], the pEC50 is 5.59.

With `Clc1cccc(Cl)c1-c1noc(C2CC2)c1C=C1CC2(CCN(c3cccc(-c4nn[nH]n4)c3)CC2)C1` [Example 51], the negative-log EC50 (pEC50) was 5.97.

For `O=C(O)c1ccc(CN2CCC3(CC2)CC(=Cc2c(-c4c(Cl)cccc4Cl)noc2C2CC2)C3)cc1` [Example 52], the pEC50 is 5.36.

In the case of `Cn1nnc(-c2ccc(N3CCC4(CC3)CC(=Cc3c(-c5c(Cl)cccc5Cl)noc3C3CC3)C4)cc2)n1` [Example 53], the pEC50 was 6.04.

Take `O=C(O)c1cc2ccc(N3CCC4(CC3)CC(=Cc3c(-c5c(Cl)cccc5Cl)noc3C3CC3)C4)cc2nn1` [Example 54]: the pEC50 was 6.57.

With `Cc1cccc(Cl)c1-c1noc(C2CC2)c1C=C1CC2(CCN(c3ccc4cc(C(=O)O)ccc4c3)CC2)C1` [Example 55], the pEC50 is 6.90.

On to `Cc1cccc(Cl)c1-c1noc(C2CC2)c1C=C1CC2(CCN(c3ccc4nc(C(=O)O)ccc4c3)CC2)C1` [Example 56], for which the pEC50 was 6.82.

As for `COCCn1cc(C(=O)O)c2ccc(N3CCC4(CC3)CC(=Cc3c(-c5c(Cl)cccc5Cl)noc3C3CC3)C4)cc21` [Example 57], the negative logarithm of the EC50 (pEC50) is 7.72.

As for `Cc1cccc(Cl)c1-c1noc(C2CC2)c1C=C1CC2(CCN(c3ccc4nc(C(=O)O)cc(C(F)(F)F)c4c3)CC2)C1` [Example 58], the pEC50 was 8.00.

In the case of `Cc1cccc(Cl)c1-c1noc(C2CC2)c1C=C1CC2(CCN(c3ccc4c(C(=O)O)cn(C)c4c3)CC2)C1` [Example 59], the pEC50 was 8.00.

For `Cc1cccc(Cl)c1-c1noc(C2CC2)c1C=C1CC2(CCN(c3nc4c(F)cc(C(=O)O)cc4s3)CC2)C1` [Example 60], the pEC50 was 6.84.

Turning to `O=C(O)COc1ccc(N2CCC3(CC2)CC(=Cc2c(-c4c(Cl)cccc4Cl)noc2C2CC2)C3)cc1` [Example 61], the pEC50 is 6.34.

Take `Cn1cc(-c2nn[nH]n2)c2ccc(N3CCC4(CC3)CC(=Cc3c(-c5ccccc5C(F)(F)F)noc3C3CC3)C4)cc21` [Example 62]: the pEC50 is 7.27.

Consider `Cc1cccc(Cl)c1-c1noc(C2CC2)c1C=C1CC2(CCN(S(=O)(=O)c3cccc(C(=O)O)c3)CC2)C1` [Example 63], for which the pEC50 was 6.18.

In the case of `O=C(O)c1cccc(N2CCC3(CC2)CC(=Cc2c(-c4c(Cl)cccc4Cl)noc2C2CC2)C3)c1` [Example 64], the negative-log EC50 (pEC50) was 6.43.

Take `O=C(O)c1cc2ccc(N3CCC4(CC3)CC(Cc3c(-c5c(Cl)cccc5Cl)noc3C3CC3)C4)cc2nn1` [Example 65]: the negative logarithm of the EC50 (pEC50) was 6.69.

For `O=C(O)c1ccc(N2CCC3(CC2)CC(=Cc2c(-c4c(Cl)cccc4Cl)noc2C2CC2)C3)cc1` [Example 66], the pEC50 was 6.16.

For `COc1cc(C(=O)O)nc2ccc(N3CCC4(CC3)CC(Cc3c(-c5ccccc5C(F)(F)F)noc3C3CC3)C4)cc12` [Example 69], the pEC50 was 7.77.

As to `COc1cc(C(=O)O)nc2ccc(N3CCC4(CC3)CC(=Cc3c(-c5ccccc5OC(F)(F)F)noc3C3CC3)C4)cc12` [Example 70], the pEC50 was 7.19.

Regarding `COc1cc(C(=O)O)nc2ccc(N3CCC4(CC3)CC(Cc3c(-c5ccccc5OC(F)(F)F)noc3C3CC3)C4)cc12` [Example 71], the negative-log EC50 (pEC50) was 7.80.

On to `COc1cc(C(=O)O)nc2ccc(N3CCC4(CC3)CC(=Cc3c(-c5ccccc5C(F)(F)F)noc3C3CC3)C4)cc12` [Example 72], for which the pEC50 is 7.68.

For `O=C(O)c1cc(C(F)(F)F)c2cc(N3CCC4(CC3)CC(=Cc3c(-c5c(Cl)cncc5Cl)noc3C3CC3)C4)ccc2n1` [Example 73], the pEC50 was 7.74.

In the case of `Cc1nc(C(=O)O)c2ccc(N3CCC4(CC3)CC(=Cc3c(-c5ccccc5C(F)(F)F)noc3C3CC3)C4)cn12` [Example 74], the pEC50 is 6.94.

Consider `Cc1nc(C(=O)O)c2ccc(N3CCC4(CC3)CC(Cc3c(-c5ccccc5C(F)(F)F)noc3C3CC3)C4)cn12` [Example 75], for which the pEC50 was 5.70.

`COc1cc(C(=O)O)nc2ccc(N3CCC4(CC3)CC(=Cc3c(-c5c(Cl)cncc5Cl)noc3C3CC3)C4)cc12` [Example 76]: the pEC50 is 7.85.

For `O=C(O)c1cn(C(F)F)c2cc(N3CCC4(CC3)CC(=Cc3c(-c5c(Cl)cncc5Cl)noc3C3CC3)C4)ccc12` [Example 77], the pEC50 is 7.40.

Turning to `Cc1cc(C(=O)O)nc2ccc(N3CCC4(CC3)CC(Cc3c(-c5ccccc5C(F)(F)F)noc3C3CC3)C4)cc12` [Example 78], the pEC50 was 7.80.

Consider `O=C(O)c1cc(OC(F)F)c2cc(N3CCC4(CC3)CC(Cc3c(-c5ccccc5C(F)(F)F)noc3C3CC3)C4)ccc2n1` [Example 79], for which the pEC50 is 8.70.

For the compound `CC(C)Oc1cc(C(=O)O)nc2ccc(N3CCC4(CC3)CC(=Cc3c(-c5ccccc5OC(F)(F)F)noc3C3CC3)C4)cc12` [Example 80], the pEC50 is 8.70.

`O=C(O)c1cc(OC(F)F)c2cc(N3CCC4(CC3)CC(=Cc3c(-c5c(Cl)cncc5Cl)noc3C3CC3)C4)ccc2n1` [Example 81]: the pEC50 was 8.52.

On to `CC(C)Oc1cc(C(=O)O)nc2ccc(N3CCC4(CC3)CC(=Cc3c(-c5ccccc5C(F)(F)F)noc3C3CC3)C4)cc12` [Example 83], for which the pEC50 was 8.30.

For `CC(C)Oc1cc(C(=O)O)nc2ccc(N3CCC4(CC3)CC(Cc3c(-c5ccccc5C(F)(F)F)noc3C3CC3)C4)cc12` [Example 84], the pEC50 is 7.72.
